Values after ≈ are worked out from the molar mass of the structure shown. Values joined by “and” are separate entries in the source; they are usually repeats but may differ in a detail not shown here. Equal values may be shown once.
What was measured:
[1] = test system: Mycobacterium tuberculosis; assay: Antimycobacterial activity against Mycobacterium tuberculosis H37Rv ATCC 27294 assessed as reduction in bacterial growth by fluorescence based MABA method; assay type: functional
[2] = test system: Mycobacterium tuberculosis; assay: Antimycobacterial activity against Mycobacterium tuberculosis H37Rv ATCC 27294 assessed as reduction in bacterial growth and measured after 21 days by radiometric BACTEC method; assay type: functional; conditions: H37Rv ATCC 27294, 504 h, time 21 day
[3] = test system: Mycobacterium tuberculosis; assay: Antimycobacterial activity against Mycobacterium tuberculosis H37Rv assessed as reduction in bacterial growth by MABA analysis; assay type: functional
[4] = test system: Mycobacterium tuberculosis; assay: Antimycobacterial activity against Mycobacterium tuberculosis H37Rv assessed as reduction in bacterial growth incubated for 21 days by broth dilution assay; assay type: functional; conditions: 504 h, time 21 day
[5] = molecular target: T1, Enoyl-[acyl-carrier-protein] reductase [NADH] (Mycobacterium tuberculosis, UniProt P9WGR1); assay: Inhibition of Mycobacterium tuberculosis InhA using octenoyl-CoA as substrate in presence of NADH and measured for 10 mins by colorimetric assay
T1 sequence (P9WGR1 whole entry): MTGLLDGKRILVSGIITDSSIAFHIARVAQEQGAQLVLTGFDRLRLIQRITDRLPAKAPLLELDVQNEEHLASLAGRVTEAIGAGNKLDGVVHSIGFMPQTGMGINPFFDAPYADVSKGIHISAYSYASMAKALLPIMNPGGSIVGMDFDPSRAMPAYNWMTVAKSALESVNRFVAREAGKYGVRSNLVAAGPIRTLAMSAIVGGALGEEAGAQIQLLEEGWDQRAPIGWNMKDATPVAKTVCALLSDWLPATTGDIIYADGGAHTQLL

[6] = test system: Mycobacterium tuberculosis; assay: Antimycobacterial activity against Mycobacterium tuberculosis H37Rv assessed as reduction in bacterial growth incubated for 15 days by turbidometric method; assay type: functional; conditions: 360 h, time 15 day
[7] = test system: Mycobacterium tuberculosis; assay: Antimycobacterial activity against Mycobacterium tuberculosis My 331/88 (H37Rv) assessed as reduction in bacterial growth incubated for 14 days by microdilution method; assay type: functional; conditions: 336 h, time 14 day
[8] = test system: Mycobacterium tuberculosis; assay: Antimycobacterial activity against Mycobacterium tuberculosis H37Rv assessed as reduction in bacterial growth incubated for 6 days by resazurin reduction microplate assay; assay type: functional; conditions: 144 h, time 6 day
[9] = Aqueous solubility of the compound incubated for 3 days by shake flask method; assay type: physicochemical; conditions: water; time 3 day
[10] = test system: Mycobacterium tuberculosis; assay: Antimycobacterial activity against Mycobacterium tuberculosis H37Rv assessed as reduction in bacterial growth; assay type: functional
[11] = test system: Mycobacterium tuberculosis; assay: Antimycobacterial activity against Mycobacterium tuberculosis H37Rv assessed as reduction in bacterial colonies by colony counting method; assay type: functional
[12] = test system: Mycobacterium tuberculosis; assay: Antimycobacterial activity against Mycobacterium tuberculosis H37Rv ATCC 27294 assessed as reduction in bacterial growth incubated for 72 hrs by two-fold dilution method; assay type: functional
[13] = test system: Mycobacterium tuberculosis; assay: Antimycobacterial activity against Mycobacterium tuberculosis H37Ra assessed as reduction in bacterial growth; assay type: functional
[14] = test system: Mycobacterium tuberculosis; assay: Antimycobacterial activity against Mycobacterium tuberculosis H37Rv assessed as reduction in bacterial growth by MABA assay; assay type: functional
[15] = test system: Mycobacterium tuberculosis; assay: Antimycobacterial activity against Mycobacterium tuberculosis H37Rv ATCC 27294 assessed as reduction in bacterial growth by MABA analysis; assay type: functional
[16] = test system: Mycobacterium tuberculosis; assay: Antimycobacterial activity against Mycobacterium tuberculosis H37Rv ATCC 27294 assessed as reduction in bacterial growth incubated for 7 days by MABA analysis; assay type: functional; conditions: H37Rv ATCC 27294, 168 h, time 7 day
[17] = test system: Mycobacterium tuberculosis; assay: Antimycobacterial activity against Mycobacterium tuberculosis kurono assessed as reduction in bacterial colonies incubated for 14 days by colony counting method; assay type: functional; conditions: 336 h, time 14 day
[18] = test system: Mycobacterium tuberculosis; assay: Antimycobacterial activity against Mycobacterium tuberculosis H37Rv assessed as reduction in bacterial growth and measured after 7 days by resazurin assay; assay type: functional, organism-based; conditions: 168 h
[19] = test system: Mycobacterium tuberculosis; assay: Antimycobacterial activity against Mycobacterium tuberculosis H37Rv ATCC 27294 assessed as reduction in bacterial growth; assay type: functional
[20] = test system: Mycobacterium tuberculosis; assay: Antimycobacterial activity against Mycobacterium tuberculosis H37Rv assessed as reduction in bacterial growth by BACTEC MGIT method; assay type: functional
[21] = test system: Mycobacterium tuberculosis; assay: Antimycobacterial activity against Mycobacterium tuberculosis H37Rv assessed as reduction in bacterial growth by agar dilution method; assay type: functional
[22] = test system: Mycobacterium tuberculosis; assay: Antimycobacterial activity against Mycobacterium tuberculosis H37Rv assessed as reduction in bacterial growth by REMA analysis; assay type: functional

CC1COc2c(N3CCNCC3)c(F)cc3c(=O)c(C(=O)O)cn1c23 (stereo not drawn) [DESMETHYL-OFLOXACIN]
MIC [1]: 11.7 µM and 4.55 µM

CCOC(=O)N1CCN(CC(=O)C2C(c3cccc(F)c3)C(C)C(=O)C(C)C2c2cccc(F)c2)CC1 (stereo not drawn)
MIC [2]: 31.2 µM (≈ 16 µg/mL)

COc1ccc(N2CCN(c3ccc(CNC(=O)c4ccc([N+](=O)[O-])o4)cc3)CC2)cc1
MIC [3]: < 0.04 µM

NNC(=O)c1ccncc1 [ISONIAZID]
MIC [3]: 0.06 µM (≈ 0.00823 µg/mL)
MIC [4]: 10.9 µM (≈ 1.5 µg/mL)

O=C(c1ccc2[nH]ccc2c1)N1CCN(C2c3ccccc3-c3ccc([N+](=O)[O-])cc32)CC1 (stereo not drawn)
IC50 [5]: 270 nM

Cc1cccc(-c2nc(CN3CCN(c4ccnc5cc(-c6cccnc6)ccc45)CC3)no2)c1C
MIC [6]: 0.52 µM (≈ 0.248 µg/mL)

CC[C@@H](CO)NCCN[C@@H](CC)CO [ETHAMBUTOL]
MIC [7]: 1.1 µM (≈ 0.225 µg/mL)

O=c1nc(N2CCN(S(=O)(=O)C3CC3)CC2)sc2c([N+](=O)[O-])cc(C(F)(F)F)cc12
MIC [8]: 6.4 nM (≈ 0.00297 µg/mL)
solubility thermodynamic at 72 h [9]: 15.9 µM (≈ 7.39 µg/mL)

CCCCOC(=O)Nc1ccc(C(O)CN2CCN(c3ccccc3F)CC2)cc1 (stereo not drawn)
MIC [7]: 8 µM (≈ 3.32 µg/mL)

CO[C@H]1/C=C/O[C@@]2(C)Oc3c(C)c(O)c4c(O)c(c(/C=N/N5CCN(C)CC5)c(O)c4c3C2=O)NC(=O)/C(C)=C\C=C\[C@H](C)[C@H](O)[C@@H](C)[C@@H](O)[C@@H](C)[C@H](OC(C)=O)[C@@H]1C [RIFAMPIN]
MIC [3]: > 48.6 µM

CC1COc2c(N3CCN(C)CC3)c(F)cc3c(=O)c(C(=O)O)cn1c23 (stereo not drawn) [OFLOXACIN]
MIC [7]: 1 µM (≈ 0.361 µg/mL)

CCOC(=O)N1CCN(CC(=O)C2C(c3ccc(OC)cc3)C(C)C(=O)C(C)C2c2ccc(OC)cc2)CC1 (stereo not drawn)
MIC [2]: 29.8 µM (≈ 16 µg/mL)

COC(=O)COc1ccc2ccccc2c1CN1CCN(C/C=C/c2ccccc2)CC1
MIC [10]: 9.3 µM (≈ 4 µg/mL)

CCCCCCCCCN1CCN(c2c(F)cc3c(c2OC)C(C2CC2)=CC(C(=O)O)C3=O)CC1 (stereo not drawn)
MIC [11]: 0.25 µM (≈ 0.122 µg/mL)

CCn1cc(C(=O)O)c(=O)c2cc(F)c(N3CCN(c4nnc(SCC(=O)c5ccc([N+](=O)[O-])cc5)s4)CC3)cc21
MIC [4]: 1.68 µM (≈ 1.01 µg/mL)

COc1c(N2CCNC(C)C2)c(F)cc2c(=O)c(C(=O)O)cn(C3CC3)c12 (stereo not drawn) [GATIFLOXACIN]
MIC [12]: 0.66 µM (≈ 0.248 µg/mL)

O=C(NCc1ccc(N2CCN(Cc3ccccc3)CC2)cc1)c1ccc([N+](=O)[O-])o1
MIC [10]: 0.014 µM (≈ 0.00589 µg/mL)
MIC [13]: 0.014 µM (≈ 0.00589 µg/mL)

CCn1cc(C(=O)O)c(=O)c2cc(F)c(N3CCN(CN4C(=O)/C(=N\c5ncc(Cc6cc(OC)c(OC)c(OC)c6)c(N)n5)c5cc(Cl)ccc54)C(C)C3)c(F)c21 (stereo not drawn)
MIC [14]: 1.91 µM (≈ 1.56 µg/mL)
MIC [15]: 1.91 µM (≈ 1.56 µg/mL)

Cc1cn2c(C(=O)NCc3ccc(N4CCN(c5ccc(C(F)(F)F)cn5)CC4)c(F)c3)cnc2s1
MIC [16]: 0.004 µM (≈ 0.00207 µg/mL)

CC(C)(c1ccc(OCc2ccc(C(F)(F)F)cc2)cc1)N1CCN(c2ccc(OC[C@H]3CCn4cc([N+](=O)[O-])nc4O3)cc2)CC1
MIC [17]: 1 nM (≈ 0.000652 µg/mL)

CCON=C1CCC(CN2CCN(c3nc(=O)c4cc(C(F)(F)F)cc([N+](=O)[O-])c4s3)CC2)CC1 (stereo not drawn)
MIC [3]: < 0.03 µM

Cc1ccc2nc(-c3ccccc3)c(C(c3ccccc3)N(CC(=O)N3CCN(c4ccccn4)CC3)Cc3ccccc3)cc2c1 (stereo not drawn)
IC50 [18]: 3.98 µM

CON=C1CCC(CN2CCN(c3nc(=O)c4cc(C(F)(F)F)cc([N+](=O)[O-])c4s3)CC2)CC1 (stereo not drawn)
MIC [3]: < 0.03 µM

CCOC(=O)N1CCN(CC(=O)C2C(c3ccc(Cl)cc3)C(C)C(=O)C(C)C2c2ccc(Cl)cc2)CC1 (stereo not drawn)
MIC [2]: 29.3 µM (≈ 16 µg/mL)

O=C(CCCc1cc2ccccc2[nH]1)N1CCN(c2nc3ccccc3c3ccccc23)CC1
MIC [16]: 3.48 µM (≈ 1.56 µg/mL)

CC(=O)NC[C@H]1CN(c2ccc(N3CCN(c4ccc5nccn5n4)CC3)c(F)c2)C(=O)O1
MIC [19]: 1.1 µM (≈ 0.499 µg/mL)

NC(=O)c1cnccn1 [PYRAZINAMIDE]
MIC [20]: 50.8 µM (≈ 6.25 µg/mL)
MIC [21]: 50.8 µM (≈ 6.25 µg/mL)

CCOC(=O)C1=NOC(c2ccc(N3CCN(Cc4ccccc4)CC3)cc2)C1 (stereo not drawn)
MIC90 [4]: 3.96 µM (≈ 1.56 µg/mL)

O=C(NCc1ccc(N2CCN(c3ccc(F)cc3)CC2)cc1)c1ccc([N+](=O)[O-])o1
MIC [3]: < 0.04 µM

COc1cc(N2CCN(c3ccc(N4C[C@H](CNC(C)=O)OC4=O)cc3F)CC2)nc2nccn12
MIC [19]: 1.03 µM (≈ 0.498 µg/mL)

O=C(CSc1nnc(N2CCN(c3cc4c(cc3F)c(=O)c(C(=O)O)cn4C3CC3)CC2)s1)c1ccc([N+](=O)[O-])cc1
MIC [4]: 0.82 µM (≈ 0.501 µg/mL)

N#Cc1ccc(Nc2nc(Oc3ncnc4ccccc34)nc(N3CCN(c4cccc(Cl)c4Cl)CC3)n2)cc1C(F)(F)F
MIC [20]: > 9.79 µM
MIC [21]: 9.79 µM (≈ 6.25 µg/mL)

CCOC(=O)N1CCN(CC(=O)C2C(c3ccccc3)CC(=O)C(CC)C2c2ccccc2)CC1 (stereo not drawn)
MIC [2]: 33.6 µM (≈ 16 µg/mL)

O=C(c1ccncc1)N1CCN(c2nc3ccccc3c3ccccc23)CC1
MIC [16]: 4.23 µM (≈ 1.56 µg/mL)

O=C(CSc1nnc(N2CCN(c3cc4c(cc3F)c(=O)c(C(=O)O)cn4C3CC3)CC2)s1)c1ccc(Cl)cc1
MIC [4]: 1.67 µM (≈ 1 µg/mL)

CCOC(=O)c1ccc(N2CCN(c3nccc(N4CCOc5nc([N+](=O)[O-])cn5C4)n3)CC2)cc1
MIC [14]: > 100 µM

O=C(NCc1ccc(N2CCN(c3ccc(F)cc3F)CC2)cc1)c1ccc([N+](=O)[O-])o1
MIC [3]: < 0.04 µM

CC(C)(C)c1ccc(S(=O)(=O)N2CCN(c3nc4ccccc4c4ccccc34)CC2)cc1
MIC [16]: 3.39 µM (≈ 1.56 µg/mL)

O=c1nc(N2CCN(CC3CCCCC3)CC2)sc2c([N+](=O)[O-])cc(C(F)(F)F)cc12 [MACOZINONE]
MIC [22]: < 0.42 µM
MIC [8]: 0.4 nM (≈ 0.000183 µg/mL)

COc1ccc2cc(C(=O)CN3CCN(c4c(F)cc5c(=O)c(C(=O)O)cn(C6CC6)c5c4OC)CC3)c(=O)oc2c1
MIC [12]: 0.43 µM (≈ 0.248 µg/mL)

CCOC(=O)N1CCN(CC(=O)C2C(c3ccccc3)C(C)C(=O)C(C)C2c2ccccc2)CC1 (stereo not drawn)
MIC [2]: 33.6 µM (≈ 16 µg/mL)

From ChEMBL document CHEMBL5214886, “An appraisal of anti-mycobacterial activity with structure-activity relationship of piperazine and its analogues: A review” (Eur J Med Chem, 2021)
